According to patent US20090263852A1, “NONAPOPTOTIC FORMS OF CELL DEATH AND METHODS OF MODULATION” (priority 2000, published 2009):
Starred links: 1 amine or outer side, 2 acyl side, 3 side chain; linkers in the order of their positions; H or OH if unused. Positions of bridges follow the written chain, without caps; N, C: chain ends. Non-standard residues stand in square brackets, D forms with d. Residues, ends and D or L forms follow the SMILES beside them. Chains are numbered I, II in the order given. Actinocin(9to1) = Cc1c2oc3c(C)ccc(C(=O)[*:1])c3nc-2c(C(=O)[*:2])c(N)c1=O; NMeV = CN[C@H](C(=O)O)C(C)C; Sar = CNCC(=O)O

How the values were obtained:
[1] = tested on: IGFIR-IC transfected 293T cells; test: IGFIR-IC-induced cell death (paraptosis) in transfected 293T cells, trypan blue exclusion; format: cell-based; design: inhibition of IGFIR-IC-induced cell death: dose or concentration left out as unconfirmed; settings: for IGFIR-induced cell death following drug treatment: drug added 8.5 hrs after transfection, removed after 12 hrs, floating dead cells counted 24 hrs later with trypan blue
Experimental: Transient transfections used Lipofect-Amine (GIBCO, BRL, Rockville, Md.) according to the manufacturer's instructions. Briefly, 1×10^6 293T cells were seeded in 6 cm dishes, and transfected the next day using a ratio of DNA:Lipofect-Amine of 1 μg:5 μl.
(§1) Following expression of the IGIFR-IC constructs, the cell cultures were assayed for cell death. Cell death was assessed by trypan blue exclusion. Floating cells were collected at the indicated times after transfection, by centrifugation for 10 minutes at 1500 rpm. The cell pellet was subsequently resuspended in 50 μl of PBS, to which 50 μl of trypan blue was added. Dead cells were counted by 4 independent hemocytometer counts.
Briefly, caspase inhibitor BAF was added to pIGFIR-IC transfected 293T cells at a concentration of […]. In addition, 293T cells were cotransfected with […] of pIGFIR-IC and […] of either pcDNA3 or pxiap or pBcl-xL. […] BAF and zVAD.fmk were obtained from Enzyme System Products (Livermore, Calif.).
To assess IGFIR-induced cell death following treatment with Actinomycin D and cycloheximide, both drugs were obtained form Sigma and added to IGFIR-IC transfected 293T cells. Briefly, 293T cells were transfected as described above and 8.5 hours after the beginning of transfection the drugs were added at the indicated concentrations. The drugs were subsequently removed after 12 hours and the cells were fed with fresh medium. Floating cells were collected 24 hrs after the removal of the drugs and dead cells were counted in the presence of trypan blue.
To assess whether caspase-9 has a functional role in IGFIR-induced cell death 293T cells were transfected with 2 μg of DNA consisting of either pcDNA3, 0.5 μg pIGFIR-IC+1.5 μg pcDNA3 (Invitrogen, Carlsbad, Calif.), or 0.5 μg pIGFIR-IC+1.5 μg dominant negative caspase-9 (pC9DN) or dominant negative caspase-7 (pC7DN) expression constructs. 48 hours after transfection, dead cells were counted.

[2] = tested on: Apoptosis; settings: Table 1, Comparison of Apoptosis, Necrosis and Paraptosis; cited from earlier work
[3] = tested on: 293T cells transfected with caspase-7 zymogen expression construct; test: caspase-7 induced cell death in transfected 293T cells; format: cell-based; settings: 50 μM final concentration, 48 hours after transfection
Experimental: (§2) In panel (A) 293T cells were transfected with the indicated pcDNA3-based caspase zymogen expression constructs. The general caspase inhibitor BAF was added at 50 μM final concentration. Cell death was assayed 48 hours after transfection. […] Asterisks indicate a highly significant difference from the control as determined by one-way ANOVA analysis (F=34.624, P<0.0001), P<0.0001 for pC9, P=0.0002 for pC7, and P=0.0001 for pC9+BAF (Bonferroni/Dunn post-hoc test). Error bars represent the SEM from three independent experiments. […] Cells were photographed 24 hours after transfection. […] BAF. […] Cells were stained as described in FIG. 2C. Panel (E) Electron micrograph of 293T cells transfected with an expression construct for pro-caspase-9 in the presence of. zVAD.fmk (40 μM). Morphology similar to IGFIR-IC-induced cell death was observed, including cytoplasmic vacuolation and the absence of chromatin condensation, nuclear fragmentation, and apoptotic body formation. Original magnification: 6000×.
as §1, with “The cell pellet was subsequently resuspended in 50 μl of PBS, to which 50 μl of trypan blue was added.” left out, “counts. […]” for “counts.”

[4] = tested on: 293T cells transfected with pro-caspase-9 (pC9); test: caspase-9 induced cell death in transfected 293T cells; format: cell-based
Experimental: as §2
as §1, with “The cell pellet was subsequently resuspended in 50 μl of PBS, to which 50 μl of trypan blue was added.” left out, “counts. […]” for “counts.”

[5] = tested on: 293T cells transfected with pro-caspase expression constructs; test: Internucleosomal DNA fragmentation of 293T cells transfected with pro-caspase expression constructs; format: cell-based; settings: 50 μM BAF
Experimental: as §2
Since one of the defining features of apoptotic cell death is the fragmentation of chromatin, genome integrity was assayed by agarose gel electrophoresis. Oligonucleosomal DNA fragmentation was assessed by extraction of soluble DNA from 3×10^6 transfected cells as by Frisch and Francis, Journal of Cell Biology 124:619-626 (1994), which is incorporated herein by reference.

CC[C@H]1/C=C/C=C/C[C@@H](C)[C@H](O)[C@@](C)(O)C(=O)[C@@H](C)[C@H](O)[C@@H](C)C(=O)[C@@H](C)[C@H](O)[C@@H](C)/C=C/C(=O)O[C@@H]2[C@H](C)[C@H](CC1)O[C@]1(CC[C@H](C)[C@H](C[C@@H](C)O)O1)[C@H]2C [oligomycin]
block of IGFIR-induced cell death phenotype ([1]; 100 ng/ml): blocked the phenotype

Cc1c2oc3c(C)ccc(C(=O)N[C@@H]4C(=O)N[C@H](C(C)C)C(=O)N5CCC[C@H]5C(=O)N(C)CC(=O)N(C)[C@@H](C(C)C)C(=O)O[C@@H]4C)c3nc-2c(C(=O)N[C@@H]2C(=O)N[C@H](C(C)C)C(=O)N3CCC[C@H]3C(=O)N(C)CC(=O)N(C)[C@@H](C(C)C)C(=O)O[C@@H]2C)c(N)c1=O [Actinomycin D] (I: T[dV]P[Sar][NMeV] / II: T[dV]P[Sar][NMeV]; ester I:1-I:C, II:1-II:C; linker I:N-II:N via Actinocin(9to1))
IGFIR-induced cell death following drug treatment [1]: restored cell viability to control levels
Inhibition by: Apoptosis [2]: Sometimes

C[C@@H]1C[C@@H]([C@H](O)CC2CC(=O)NC(=O)C2)C(=O)[C@@H](C)C1 [Cycloheximide, cycloheximide]
Inhibition by: Paraptosis ([1]; Table 1, 293T cell death induced by IGFIR-IC): 0
IGFIR-induced cell death following drug treatment [1]: dose-dependent block
Inhibition by: Apoptosis [2]: Sometimes

COC(=O)C[C@H](NC(=O)OC(C)(C)C)C(=O)CF [BAF, t-butyloxycarbonyl-Asp (O-methyl)-fluoromethyl ketone]
inhibition of IGFIR-IC-induced cell death ([1]; 293T cells): Neither the administration of the caspase inhibitor BAF at 50 mM (A) nor the cotransfection of xiap (B) or Bcl-xL (C) were effective
inhibition of caspase-7 induced cell death [3]: completely
morphology of pro-caspase-9 transfected cells, light microscopy ([4]; 50 μM BAF, 24 hours after transfection): suppressed the apoptotic phenotype
inhibition of caspase-9 induced cell death ([4]; 50 μM final concentration, 48 hours after transfection): 30%
Internucleosomal DNA fragmentation [5]: completely inhibited
